Reference: PubChem BioAssay AID1919001 (Molecular Pharmacology Branch, DTP, NCI, 2023)

Tested on: 699152-130-R-J1-PDC complex spheroid growth
Experiment: Anticancer human tumor 699152-130-R-J1-PDC patient-derived pancreatic carcinoma cell line growth inhibition [AhR]
Details: for IC50: curve of first compound; for viability, T/C: stronger effect = lower value
How it was run: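 Agents were dosed in half-log steps down from roughly clinical Cmax, or from 10 microM where Cmax was unknown, alone and with AhR antagonists. Read-out: percent test/control growth of tumor spheroids containing HUVEC and MSC stromal cells.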

[1] = second compound 0.1 µM, first compound 0.0316 µM
[2] = second compound 0.1 µM, first compound 0.1 µM
[3] = second compound 0.1 µM, first compound 0.316 µM
[4] = second compound 0.1 µM, first compound 1 µM
[5] = second compound 0.1 µM, first compound 3.16 µM
[6] = second compound 0.1 µM, first compound 10 µM
[7] = second compound 0.316 µM, first compound 0.0316 µM
[8] = second compound 0.316 µM, first compound 0.1 µM
[9] = second compound 0.316 µM, first compound 0.316 µM
[10] = second compound 0.316 µM, first compound 1 µM
[11] = second compound 0.316 µM, first compound 3.16 µM
[12] = second compound 0.316 µM, first compound 10 µM
[13] = second compound 1 µM, first compound 0.0316 µM
[14] = second compound 1 µM, first compound 0.1 µM
[15] = second compound 1 µM, first compound 0.316 µM
[16] = second compound 1 µM, first compound 1 µM
[17] = second compound 1 µM, first compound 3.16 µM
[18] = second compound 1 µM, first compound 10 µM
[19] = second compound 3.16 µM, first compound 0.0316 µM
[20] = second compound 3.16 µM, first compound 0.1 µM
[21] = second compound 3.16 µM, first compound 0.316 µM
[22] = second compound 3.16 µM, first compound 1 µM
[23] = second compound 3.16 µM, first compound 3.16 µM
[24] = second compound 3.16 µM, first compound 10 µM
[25] = second compound 10 µM, first compound 0.0316 µM
[26] = second compound 10 µM, first compound 0.1 µM
[27] = second compound 10 µM, first compound 0.316 µM
[28] = second compound 10 µM, first compound 1 µM
[29] = second compound 10 µM, first compound 3.16 µM
[30] = second compound 10 µM, first compound 10 µM
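Also: compound exposure lasted 7 days after spheroids had grown for 3 days.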

SMILES	IC50 (second compound 0.1 µM) [nM]	IC50 (second compound 0.316 µM) [nM]	IC50 (second compound 1 µM) [nM]	IC50 (second compound 3.16 µM) [nM]	IC50 (second compound 10 µM) [nM]	viability, T/C [1] [%]	viability, T/C [2] [%]	viability, T/C [3] [%]	viability, T/C [4] [%]	viability, T/C [5] [%]	viability, T/C [6] [%]	viability, T/C [7] [%]	viability, T/C [8] [%]	viability, T/C [9] [%]	viability, T/C [13] [%]	viability, T/C [14] [%]	viability, T/C [19] [%]	viability, T/C [20] [%]	viability, T/C [25] [%]	viability, T/C [26] [%]	further results
CC1(C)CCC(CN2CCN(c3ccc(C(=O)NS(=O)(=O)c4ccc(NCC5CCOCC5)c([N+](=O)[O-])c4)c(Oc4cnc5[nH]ccc5c4)c3)CC2)=C(c2ccc(Cl)cc2)C1 + Cc1cncc(-c2nc(NCCc3c[nH]c4ccccc34)c3ncn(C(C)C)c3n2)c1	> 10000	> 10000	> 10000	> 10000	< 31.6	101	111	124	106	109	97.4	114	110	105	127	134	121	127	19.8	18.4	viability, T/C [10]: 107%; viability, T/C [11]: 114%; viability, T/C [12]: 121%; viability, T/C [15]: 127%; viability, T/C [16]: 117%; viability, T/C [17]: 120%; viability, T/C [18]: 128%; viability, T/C [21]: 130%; viability, T/C [22]: 123%; viability, T/C [23]: 125%; viability, T/C [24]: 128%; viability, T/C [27]: 23.2%; viability, T/C [28]: 23.7%; viability, T/C [29]: 27.9%; viability, T/C [30]: 22.8%
Cn1ncnc1C1c2n[nH]c(=O)c3cc(F)cc(c23)NC1c1ccc(F)cc1 (stereo not given) + Cc1cncc(-c2nc(NCCc3c[nH]c4ccccc34)c3ncn(C(C)C)c3n2)c1	> 100	> 100	> 100	> 100	< 0.316	105	104	–	–	–	–	102	104	–	111	124	114	99.1	28	22.5	viability, T/C (second compound 0.1 µM, first compound 0.000316 µM): 95.2%; viability, T/C (second compound 0.1 µM, first compound 0.001 µM): 117%; viability, T/C (second compound 0.1 µM, first compound 0.00316 µM): 109%; viability, T/C (second compound 0.1 µM, first compound 0.01 µM): 115%; viability, T/C (second compound 0.316 µM, first compound 0.000316 µM): 113%; viability, T/C (second compound 0.316 µM, first compound 0.001 µM): 115%; viability, T/C (second compound 0.316 µM, first compound 0.00316 µM): 125%; viability, T/C (second compound 0.316 µM, first compound 0.01 µM): 115%; viability, T/C (second compound 1 µM, first compound 0.000316 µM): 125%; viability, T/C (second compound 1 µM, first compound 0.001 µM): 117%; viability, T/C (second compound 1 µM, first compound 0.00316 µM): 119%; viability, T/C (second compound 1 µM, first compound 0.01 µM): 116%; viability, T/C (second compound 3.16 µM, first compound 0.000316 µM): 128%; viability, T/C (second compound 3.16 µM, first compound 0.001 µM): 114%; viability, T/C (second compound 3.16 µM, first compound 0.00316 µM): 118%; viability, T/C (second compound 3.16 µM, first compound 0.01 µM): 116%; viability, T/C (second compound 10 µM, first compound 0.000316 µM): 26.1%; viability, T/C (second compound 10 µM, first compound 0.001 µM): 28.6%; viability, T/C (second compound 10 µM, first compound 0.00316 µM): 34.2%; viability, T/C (second compound 10 µM, first compound 0.01 µM): 26.6%
NS(=O)(=O)OCC1CC(n2ccc3c(NC4CCc5ccccc54)ncnc32)CC1O (stereo not given) + Cc1cncc(-c2nc(NCCc3c[nH]c4ccccc34)c3ncn(C(C)C)c3n2)c1	898	837	889	512	< 31.6	112	128	145	41.8	21.5	20.9	114	132	147	131	156	104	103	23.7	17.8	viability, T/C [10]: 35.2%; viability, T/C [11]: 18.9%; viability, T/C [12]: 21.4%; viability, T/C [15]: 149%; viability, T/C [16]: 39.1%; viability, T/C [17]: 18.8%; viability, T/C [18]: 18.3%; viability, T/C [21]: 74.2%; viability, T/C [22]: 16.5%; viability, T/C [23]: 8.14%; viability, T/C [24]: 9.66%; viability, T/C [27]: 10.1%; viability, T/C [28]: 5.16%; viability, T/C [29]: 4.2%; viability, T/C [30]: 3.67%
